Columns and labels:
[1] = target: T1, Carboxylic ester hydrolase (Equus caballus, UniProt Q9N1N9); test: (§1) Tested for kinetic data for the horse serum Butyrylcholinesterase-Catalyzed Hydrolysis of Butyrylthiocholine; 10e-3/M. sec; conditions: read-out: kon (M-1-s-1)
[2] = target: T1, Carboxylic ester hydrolase; test: ChEBML_41403; conditions: read-out: kon (M-1-s-1); from the text: as §1

T1 sequence (Q9N1N9 whole entry): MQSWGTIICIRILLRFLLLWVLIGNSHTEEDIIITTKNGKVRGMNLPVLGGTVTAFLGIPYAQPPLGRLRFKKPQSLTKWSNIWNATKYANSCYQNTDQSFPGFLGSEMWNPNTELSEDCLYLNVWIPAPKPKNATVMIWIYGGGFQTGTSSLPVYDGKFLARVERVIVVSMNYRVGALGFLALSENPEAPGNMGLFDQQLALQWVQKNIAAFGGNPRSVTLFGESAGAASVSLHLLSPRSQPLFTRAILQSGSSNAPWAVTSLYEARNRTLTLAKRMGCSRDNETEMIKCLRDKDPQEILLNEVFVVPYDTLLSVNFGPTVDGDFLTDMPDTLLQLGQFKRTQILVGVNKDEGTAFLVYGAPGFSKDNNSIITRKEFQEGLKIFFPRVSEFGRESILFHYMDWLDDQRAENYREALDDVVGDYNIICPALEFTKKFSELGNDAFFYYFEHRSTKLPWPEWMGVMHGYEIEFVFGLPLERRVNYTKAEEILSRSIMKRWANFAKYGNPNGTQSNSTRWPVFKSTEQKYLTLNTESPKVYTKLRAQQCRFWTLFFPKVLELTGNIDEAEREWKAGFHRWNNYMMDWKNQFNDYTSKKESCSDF

In the case of CCCCNC(=O)OC1C2CC3CC(C2)CC1C3 (centres undefined), the kon [1] is reported as 1800 M⁻¹ s⁻¹.

CCCCNC(=O)OC12CC3CC(CC(C3)C1)C2 [Butyl-carbamic acid adamantan-1-yl ester] was tested, and the kon [1] was 1900 M⁻¹ s⁻¹.

In the case of CCCCNC(=O)OC1C[C@H]2CCC1C2 (stereo partly drawn) [Butyl-carbamic acid (S)-bicyclo[2.2.1]hept-2-yl ester], the kon [2] is reported as 2200 M⁻¹ s⁻¹ and the kon [1] is reported as 110000 M⁻¹ s⁻¹.

From BindingDB's records for doi:10.1016/s0960-894x(98)00484-3 (National Chung-Hsing University, 1999)
